Test results as given in US9198894B2, “Uses of 15-benzylidene-14-deoxy-11,12-didehydroandrographolide derivatives in the preparation of antineoplastic drugs” (Zhengzhou University, priority 2010, dated 2015).
Read-outs that look alike come from different tables or passages of the source. Marks after values point to notes of the source that are not given here.

Key:
[1] = test system: Hela human cervical carcinoma; assay: Colony formation assay, Hela; type: cell-based; details: for IC50: read-out: Inhibition against tumor cell colony formation IC50
Protocol: (§1) 1) Cell lines: Cell lines of SGC-7901 human gastric cancer, A549 human lung adenocarcinoma and Hela human cervical carcinoma were purchased from the Type Culture Collection of the Chinese Academy of Sciences, Shanghai, China.
(§2) 3) Method: Colony formation assay was used. The cells were trypsinized to generate a single-cell suspension and seeded in a 6-well plate at a density of 100 cells/well, then drug-containing medium was added to the well to make the final concentration of compound to 0, 1.25, 2.50, 5.00, 7.50, 10.00 μmol/L, respectively. The experiments were performed in duplicate, and the cells were cultured at 37 in a humidified atmosphere with 5% CO2. Terminate cell culture when the clones can be seen in the culture plate, then remove the culture medium, and wash twice with PBS, fix the cells with methanol (5 ml/well) for 15 min and stain the cells with hematoxylin-eosin stain. The number of clones which comprised more than 50 cells was counted under a TS100-F-PH microscope (Nikon Company, Japan). Calculate relative colony formation ratio (%) and the IC50 values. Relative colony formation ratio (%)=(colony number of drug-administration well/colony number of control well)×100%.

[2] = test system: SGC-7901 human gastric cancer; assay: Colony formation assay, SGC-7901; type: cell-based; details: for IC50: read-out: Inhibition against tumor cell colony formation IC50
Protocol: as §1, §2

[3] = test system: 5637 human urinary bladder cancer cells; assay: Wound healing (two-dimensional migration) assay, 5637; type: cell-based; details: 5637, 10.00 μmol/l, 24 h (FIG. 1C)
Protocol: (§3) 1) Cell lines: Cell lines of 5637 human bladder carcinoma, Eca-109 human esophageal carcinoma, HT29 human colon cancer, SGC-7901 human gastric cancer, A549 human lung adenocarcinoma and PC-3 human prostate carcinoma were purchased from the Type Culture Collection of the Chinese Academy of Sciences, Shanghai, China.
(§4) 3) Methods: The cells were trypsinized to generate a single-cell suspension and seeded in 96-well plates (200 μl/well), and incubated with medium containing 10% fetal bovine serum at 37 in a humidified atmosphere with 5% CO2. Following a 24 h incubation, the cells were starved for an additional 12 h in low-serum media (1% FBS). The cultures of Eca-109, HT29, 5637, SGC-7901, A549 and PC-3 were then scratched away with a 200-μl plastic pipette tip and rinsed twice with PBS to remove wound-derived loose and dislodged cells. The cells were cultured in replaced medium without or with compounds at final concentrations of 0, 2.50, 5.00 and 10.00 μmol/L, respectively. At least seven randomly selected views along the scraped line in each well were photographed immediately and 24 h and 36 h after incubation using a digital camera at 50× magnification. The average scraped area in each well under each treatment condition was measured, and the percentage of inhibition against cell migration was calculated. % of inhibition=1−(A0−At)/(A′0−A′t)×100%, where, A0 and At are the areas of wound with compound treatment measured immediately and 24 or 36 h post-injury, respectively; A′0 and A′t are the areas of wound without compound treatment measured immediately and 24 or 36 h post-injury, respectively.

[4] = test system: A549 human lung carcinoma cells; assay: Wound healing (two-dimensional migration) assay, A549; type: cell-based; details: A549, 10.00 μmol/l, 36 h (FIG. 1E)
Protocol: as §3, §4

Murine hepatoma H22 = assay: Anti-tumor and anti-angiogenesis effects on H22 tumor-bearing mice; type: in vivo, mouse; details: H22 mice, 1.35 mmol/kg ig once a day 7 d
Description: 1) Animals: Kunming mice of clean grade, half male and half female, body weight 20±2 g, were purchased from the experimental animal center of Henan Province, China. Qualified Certificate number: SCXK (Yu) 2005-0001.
2) Cells: Murine hepatoma H22 cells were presently obtained from Henan Academy of Medical and Pharmaceutical Sciences (Zhengzhou, China).
Cyclophosphamide (Cyc) was produced by Tianjin Jingshi Pharmaceutical Co., Ltd., China (approval number of medicine: H12021006). Gelatin and carmine red were supplied by Sigma Chemical (St. Louis, Mo., U.S.A). All other chemicals and reagents were of the highest commercial grade available. All drugs were prepared with normal saline emulsified with Tween-80 (0.1% v/v) and dispersed in carboxymethylcellulose (0.5% v/v). 10% (W/V) carmine solution was prepared with salt solution containing 5% (W/V) gelatin which should be used immediately after preparation. The rest of medicines and reagents and the methods for preparation were the same with that of EXAMPLE 1.
4) Method: The H22 cells after in vivo passage for 7 d were diluted with physiological saline to adjust to a concentration of 1×10^7/mL, injected to the armpit of right forelimb of mice subcutaneously (0.2 ml/mouse), then mice were divided into 10 groups (n=12; 6 male and 6 female per group) randomly. 24 h later each group of mice was administrated intragastrically (ig; 0.2 ml/10 g) once a day continuously for 7 d with vehicle (tumor control group and control group), Cyc (standard control), or compounds at the tested doses. After the last drug administration and a following fasting of 8 h, each mouse was anesthetized with 1% pentobarbital in normal saline solution (80 mg/kg; ip). Mice of control group were injected with 5% gelatin in normal saline solution (40) via the tail vein (1 ml/mouse); whereas mice of other groups were injected replaced by 10% carmine red and 5% gelatin in normal saline solution (40). Mice were killed, then freezed in a refrigerator at −20 for 2 h to solidify. Tumors were segregated, weighed and homogenized with 3 M NaOH solution (10 ml/g tumor). The homogenate supernatant was prepared by being centrifuged for 20 min at 14000 rpm, and the absorbance at 490 nm was assayed using a PowerWaveX Microplate Scanning Spectrophotometer (Bio-tek Instruments, Inc). The carmine red content was calculated based on the standard curve. The vascular index (VI) expressed as milligram of carmine red per gram of tumor tissue. The inhibition ratio (IR) of tumor growth was calculated using the formula: IR (%)=[(Wc−Wt)/Wc]×100%, where Wc is the average tumor weight of the control group, and Wt is that of the drug treatment group. Data were expressed as mean±SD and statistical analysis was performed by SPSS Statistics 17.0 using a one-way analysis of variance (ANOVA) followed by unpaired t-test. A value of P<0.05 was considered statistically significant.

[5] = test system: A549 human lung adenocarcinoma; assay: Colony formation assay, A549; type: cell-based; details: for IC50: read-out: Inhibition against tumor cell colony formation IC50
Protocol: as §1, §2

S180 murine sarcoma = assay: Growth, invasion and metastasis of S180 sarcoma in tumor-bearing mice; type: in vivo, mouse
Protocol: 1) Animals: Be the same with that of EXAMPLE 4.
2) Cells: The S180 murine sarcoma cells were obtained from Henan Academy of Medical and Pharmaceutical Sciences (Zhengzhou, China).
4) Method: Mice were randomly divided into 10 groups (n=12). The S180 cells after in vivo passage for 7 d were diluted with physiological saline to adjust to a concentration of 1×10^7/mL. The inoculation of tumor cells was conducted in two batches, those of tumor control group I and groups treated with compounds 1 or 3 were in batch 1, those of tumor control group II, Cyc group and the compound 2 groups were in batch 2. The mice were injected with S180 cells (0.2 ml/mouse) into the armpit of right forelimb subcutaneously, and 24 h later each group of mice was administrated intragastrically (ig; 0.2 ml/10 g) once a day continuously for 9 d with vehicle (tumor control group), Cyc (standard control), or compounds at the tested doses. On day 10, kill the mice, observe and record the degree of invasion and metastasis of tumor tissues, then the tumor tissues were segregated and weighed. The inhibition ratio (IR) of tumor growth was calculated by the following formula: IR (%)=[(Wc−Wt)/Wc]×100%, where Wc is the average tumor weight of the control group, and Wt is that of the treatment group. Data were expressed as mean±SD and statistical analysis was performed by SPSS Statistics 17.0 using a one-way analysis of variance (ANOVA) followed by unpaired t-test. A value of P<0.05 was considered statistically significant.

[6] = test system: Eca-109 human esophageal carcinoma cells; assay: Wound healing (two-dimensional migration) assay, Eca-109; type: cell-based; details: Eca-109, 10.00 μmol/l, 24 h (FIG. 1A)
Protocol: as §3, §4

| SMILES | Inhibitory effect on two-dimensional migration [3] | Inhibitory effect on two-dimensional migration [4] | Inhibition of colony formation compared with andrographolide ([1]; Hela) | IC50 ([1]; Hela) [µM] | Inhibition of colony formation compared with andrographolide [2] | IC50 [2] [µM] | Inhibitory effect on two-dimensional migration [6] | Inhibition of colony formation compared with andrographolide [5] | IC50 [5] [µM] | also measured |
| --- | --- | --- | --- | --- | --- | --- | --- | --- | --- | --- |
| C=C1CC[C@@H]2[C@](C)(CO)[C@H](O)CC[C@@]2(C)[C@@H]1C/C=C1/C(=O)OC[C@H]1O [Compound 1, Andrographolide] | stronger inhibition | stronger inhibition | – | – | – | – | – | – | – | IC50 ([1]; Homo sapiens, HeLa): 2.91 µM; IC50 ([2]; Homo sapiens): 19 µM; IR (%) of tumor growth (Murine hepatoma H22): 31.70* %; Carmine contents (Murine hepatoma H22; mean ± s): 4.66 ± 2.58; VI (vascular index, mg carmine red per g tumor tissue) (Murine hepatoma H22; mean ± s): 5.10 ± 2.13 mg/g; IC50 ([5]; Homo sapiens): 11.3 µM; IR (%) of S180 sarcoma growth (S180 murine sarcoma; 1.35 mmol/kg ig once a day 9 d): 17.18 ± 3.21 %; Average invasion and metastasis grade (S180 murine sarcoma; S180, grades 0-4, 1.35 mmol/kg): 0.67; Mouse Number Grade 0 (S180 murine sarcoma; S180 invasion, Grade 0: no invasion, 1.35 mmol/kg): 6; Mouse Number Grade 1 (S180 murine sarcoma; S180 invasion, Grade 1: invasion to right forelimb, 1.35 mmol/kg): 4; Mouse Number Grade 2 (S180 murine sarcoma; S180 invasion, Grade 2: right forelimb and the left side of body, 1.35 mmol/kg): 2; Mouse Number Grade 3 (S180 murine sarcoma; S180 invasion, Grade 3: also the ribs and muscles in chest, 1.35 mmol/kg): 0; Mouse Number Grade 4 (S180 murine sarcoma; S180 invasion, Grade 4: invasion into chest or abdominal cavity, 1.35 mmol/kg): 0 |
| C=C1CCC2C(C)(CO)C(O)CCC2(C)C1C=CC1=CC(=Cc2ccc(F)cc2)OC1=O (stereo not drawn) [Compound 5] | – | much stronger than that of other tumor cells | remarkably stronger than that of andrographolide | 1.47 | remarkably stronger than that of andrographolide | 2.07 | much stronger than that of other tumor cells | remarkably stronger than that of andrographolide | 2.27 | – |
| C=C1CCC2C(C)(CO)C(O)CCC2(C)C1C=CC1=CC(=Cc2ccc(Br)cc2)OC1=O (stereo not drawn) [Compound 6] | – | – | remarkably stronger than that of andrographolide | 1.98 | remarkably stronger than that of andrographolide | 2.63 | – | remarkably stronger than that of andrographolide | 1.67 | – |
| C=C1CCC2C(C)(CO)C(O)CCC2(C)C1C=CC1=CC(=Cc2ccc(OC)cc2)OC1=O (stereo not drawn) [Compound 7] | stronger inhibition | stronger inhibition | remarkably stronger than that of andrographolide | 2.4 | remarkably stronger than that of andrographolide | 2.45 | – | remarkably stronger than that of andrographolide | 3.31 | – |
| C=C1CCC2C(C)(COC(=O)CCC(=O)O)C(OC(=O)CCC(=O)O)CCC2(C)C1C=CC1=CC(=Cc2ccc(Cl)cc2)OC1=O (stereo not drawn) [Compound 8] | – | much stronger than that of other tumor cells | – | – | – | – | much stronger than that of other tumor cells | – | – | – |
